The results in this text go back to ChEMBL document CHEMBL5214976, “Design, synthesis and anti-tumor activity studies of novel pyrido[3, 4-d]pyrimidine derivatives” (Bioorg Med Chem Lett, 2022).

pIC50: −log10 of the molar value. The source made the active and inactive calls. The rule behind the calls is not given here.

Assay [1] has as its system HepG2. The assay is described as follows: Antitumor activity human HepG2 cells assessed as inhibition of cell proliferation incubated for 72 hrs by MTT assay. The note with it: HepG2, 72 h. The format is functional, cell-based. For orientation: Tetrazolium dyes change colour on reduction, which living cells bring about.
For assay [2], the system named is MGC-803. The assay is described as follows: Antitumor activity human MGC-803 cells assessed as inhibition of cell proliferation incubated for 72 hrs by MTT assay. The format is functional, cell-based. To be noted: MGC-803, 72 h.
For assay [3], the system named is PC-3. The assay is described as follows: Antitumor activity against human PC-3 cells assessed as inhibition of cell proliferation incubated for 72 hrs by MTT assay. The format is functional, cell-based. The note with it: PC-3, 72 h.
Assay [4] relates to MGC-803. As to the kind of experiment: Antiproliferative activity against human MGC-803 cells assessed as inhibition of cell proliferation incubated for 48 hrs by MTT assay. The format is functional, cell-based. The note with it: MGC-803, 48 h.
In assay [5] the test system is HepG2. As to the kind of experiment: Potency index, ratio of 5-fluorouracil IC50 to test compound IC50 for antiproliferative activity against human HepG2 cells assessed as inhibition of cell proliferation incubated for 72 hrs by MTT assay. The format is functional.
The test system of assay [6] is MGC-803. The assay is described as follows: Potency index, ratio of 5-fluorouracil IC50 to test compound IC50 for antiproliferative activity against human MGC-803 cells assessed as inhibition of cell proliferation incubated for 72 hrs by MTT assay. The format is functional.
For assay [7], the system named is MGC-803. The assay is described as follows: Induction of apoptosis in human MGC-803 cells assessed as viable cells at 0.25 uM by Annexin V-FITC/PI staining based flow cytometric analysis (reference value: 95.0 %). The note with it: read-out: Activity. The format is functional.
Assay [8] has as its system MGC-803. As to the kind of experiment: Induction of apoptosis in human MGC-803 cells assessed as early apoptotic cells at 0.25 uM by Annexin V-FITC/PI staining based flow cytometric analysis (reference value: 1.8 %). The format is functional. For orientation: Flow cytometry measures light scatter and fluorescence of single cells or particles in a stream.
Assay [9] concerns MGC-803. As to the kind of experiment: Induction of apoptosis in human MGC-803 cells assessed as late apoptotic cells at 0.25 uM by Annexin V-FITC/PI staining based flow cytometric analysis (reference value: 2.8 %). The format is functional.
In assay [10] the test system is MGC-803. As to the kind of experiment: Induction of apoptosis in human MGC-803 cells assessed as necrotic cells at 0.25 uM by Annexin V-FITC/PI staining based flow cytometric analysis (reference value: 0.4 %). The format is functional.
Assay [11] relates to MGC-803. The assay is described as follows: Induction of apoptosis in human MGC-803 cells assessed as viable cells at 0.5 uM by Annexin V-FITC/PI staining based flow cytometric analysis (reference value: 95.0 %). To be noted: read-out: Activity. The format is functional.
Assay [12] has as its system MGC-803. The assay is described as follows: Induction of apoptosis in human MGC-803 cells assessed as early apoptotic cells at 0.5 uM by Annexin V-FITC/PI staining based flow cytometric analysis (reference value: 1.8 %). The format is functional.
Assay [13] concerns MGC-803. As to the kind of experiment: Induction of apoptosis in human MGC-803 cells assessed as late apoptotic cells at 0.5 uM by Annexin V-FITC/PI staining based flow cytometric analysis (reference value: 2.8 %). The format is functional.
Assay [14] has as its system MGC-803. As to the kind of experiment: Induction of apoptosis in human MGC-803 cells assessed as necrotic cells at 0.5 uM by Annexin V-FITC/PI staining based flow cytometric analysis (reference value: 0.4 %). The format is functional.
The subject of assay [15] is MGC-803. The assay is described as follows: Induction of apoptosis in human MGC-803 cells assessed as viable cells at 0.75 uM by Annexin V-FITC/PI staining based flow cytometric analysis (reference value: 95.0 %). The note with it: read-out: Activity. The format is functional.
For assay [16], the system named is MGC-803. The assay is described as follows: Induction of apoptosis in human MGC-803 cells assessed as early apoptotic cells at 0.75 uM by Annexin V-FITC/PI staining based flow cytometric analysis (reference value: 1.8 %). The format is functional.
Assay [17] relates to MGC-803. The assay is described as follows: Induction of apoptosis in human MGC-803 cells assessed as late apoptotic cells at 0.75 uM by Annexin V-FITC/PI staining based flow cytometric analysis (reference value: 2.8 %). The format is functional.
Assay [18] concerns MGC-803. As to the kind of experiment: Induction of apoptosis in human MGC-803 cells assessed as necrotic cells at 0.75 uM by Annexin V-FITC/PI staining based flow cytometric analysis (reference value: 0.4 %). The format is functional.
The subject of assay [19] is MGC-803. The assay is described as follows: Induction of apoptosis in human MGC-803 cells assessed as total apoptotic cells at 0.25 uM by Annexin V-FITC/PI staining based flow cytometric analysis (reference value: 4.6%). The format is functional.
Assay [20] relates to MGC-803. The assay is described as follows: Induction of apoptosis in human MGC-803 cells assessed as total apoptotic cells at 0.5 uM by Annexin V-FITC/PI staining based flow cytometric analysis (reference value: 4.6%). The format is functional.
The subject of assay [21] is MGC-803. The assay is described as follows: Induction of apoptosis in human MGC-803 cells assessed as total apoptotic cells at 0.75 uM by Annexin V-FITC/PI staining based flow cytometric analysis (reference value: 4.6%). The format is functional.
Assay [22] deals with MGC-803. As to the kind of experiment: Induction of apoptosis in human MGC-803 cells assessed as increase in Bid protein expression by Western blot analysis. The format is functional, cell-based. To be noted: dose 0.25-0.75 µM, DDE = dose-dependent effect. In general terms: Immunoblotting shows a protein as a band on a membrane.
Assay [23] relates to MGC-803. As to the kind of experiment: Induction of apoptosis in human MGC-803 cells assessed as increase in PARP protein expression by Western blot analysis. The format is functional, cell-based. To be noted: dose 0.25-0.75 µM, DDE = dose-dependent effect.
For assay [24], the system named is MGC-803. The assay is described as follows: Induction of cell cycle arrest in human MGC-803 cells assessed as accumulation of cells at G1/S phase by measuring decrease in CycD1 protein expression at 0.25 to 0.75 uM by Western blot analysis. To be noted: dose 0.25-0.75 µM. The format is functional, cell-based.

The term pIC50 denotes −log10 of the IC50, conventionally taken in molar units. Turning to `C#CCSc1nc(Nc2ccccc2O)c2ccncc2n1`, the pIC50 is less than 4.10 in assay [1], 4.68 in [2] and 4.73 in assay [3].

In the case of `C#CCSc1nc(N2CCN(C)CC2)c2ccncc2n1`, the negative logarithm of the IC50 (pIC50) in assay [1], in assay [2] and in [3] was less than 4.10 each time.

With `C#CCSc1nc(Nc2ccc(O)cc2)c2ccncc2n1`, the pIC50 in [1], in assay [2] and in assay [3] was less than 4.10 each time.

`C#CCSc1nc(Nc2ccc([N+](=O)[O-])cc2)c2ccncc2n1`: the pIC50 in assay [1], in [2] and in assay [3] was less than 4.10 in each case.

In the case of `CCCSc1nc(Nc2cccc(OC)c2)c2ccncc2n1`, the pIC50 was 4.76 in assay [1], 5.71 in assay [2] and 4.82 in assay [3].

In the case of `C#CCSc1nc(N2CCN(Cc3ccccc3)CC2)c2ccncc2n1`, the negative-log IC50 (pIC50) in [1], in assay [2] and in assay [3] was less than 4.10 in each case.

On to `C#CCSc1nc(Nc2ccc(Cl)cc2)c2ccncc2n1`, for which the pIC50 in [1] was 4.43; in [2] it was 4.78; in assay [3], 4.72.

As for `Cc1cc(Cc2nc(C)c3ccccc3n2)n2ncnc2n1`, the pIC50 in assay [4] was 5.08.

For the molecule `C#CCSc1nc(Nc2ccccc2OC)c2ccncc2n1`, the results for the pIC50 in assay [1], in assay [2] and in [3] were 5.34, 5.46 and less than 4.10, respectively.

Consider `C#CCSc1nc(Nc2cccc(OC)c2)c2ccncc2n1`, for which the pIC50 in assay [1] is 6.04; in [2] it was 5.68; in [3], 4.77. For the same molecule, the results for the “Ratio IC50” value in assay [5] and in assay [6] were 30 and 3, respectively.

For `C#CCSc1nc(Nc2ccc(C)cc2)c2ccncc2n1`, the pIC50 in [1] is 5.21; in assay [2] it was 5.09; in assay [3] it was 4.80.

Turning to `C#CCSc1nc(N2CCSCC2)c2ccncc2n1`, the pIC50 in [1], in [2] and in assay [3] was less than 4.10 in each case.

As to `CCSc1nc(Nc2cccc(OC)c2)c2ccncc2n1`, the pIC50 was 4.97 in [1], 6.23 in assay [2] and 5.15 in assay [3]. For the same molecule, the viability at 0.25 µM in assay [7] stood at 90%. The Activity in [8] was found to be 6.8%; in [9], 3%; in assay [10] it was 0.2%; in [12], 16%; in [13] it was 11.6%; in assay [14], 0.5%. Besides, the Activity was found to be 38.9% in assay [16]; 36.8% in assay [17]; 0.2% in assay [18]; 9.8% in assay [19]; 27.6% in assay [20]; 75.7% in [21]. The Activity entry in [22] and in assay [23] was “Dde” each time. In addition, the viability at 0.5 µM in assay [11] worked out at 71.9%. The viability at 0.75 µM in assay [15] turned out to be 24.1%. Moreover, in [24], the outcome was Active.

Take `C#CCSc1nc(Nc2ccc(OC)cc2)c2ccncc2n1`: the pIC50 is less than 4.10 in assay [1], less than 4.10 in assay [2] and 4.82 in assay [3].

Regarding `C#CCSc1nc(N2CCOCC2)c2ccncc2n1`, the pIC50 in assay [1], in assay [2] and in assay [3] was less than 4.10 each time.

For `C#CCSc1nc(N2CCN(C(=O)OC(C)(C)C)CC2)c2ccncc2n1`, the pIC50 in assay [1] was 4.25; in assay [2], less than 4.10; in [3] it was 4.32.

As to `C#CCSc1nc(Nc2ccc(Cl)cc2Cl)c2ccncc2n1`, the pIC50 in [1] was 4.96; in assay [2] it was 4.59; in [3] it was 4.52.

`C#CCSc1nc(N2CCN(CC)CC2)c2ccncc2n1`: the pIC50 in [1] was less than 4.10; in [2], 4.15; in assay [3] it was less than 4.10.

As to `C#CCSc1nc(Nc2ccc(F)cc2)c2ccncc2n1`, the pIC50 is 4.97 in assay [1], 4.80 in assay [2] and 4.76 in assay [3].

Consider `C#CCSc1nc(Nc2ccccc2)c2ccncc2n1`, for which the figures for the pIC50 in [1], in assay [2] and in assay [3] were 4.53, 4.79 and less than 4.10, respectively.

Turning to `C#CCSc1nc(NCCC(C)C)c2ccncc2n1`, the pIC50 in [1], in [2] and in assay [3] was less than 4.10 in each case.

For `COc1cccc(Nc2nc(SCC3CC3)nc3cnccc23)c1`, the results for the pIC50 in assay [1], in [2] and in assay [3] were 4.60, 5.87 and 4.83, respectively.

As for `C#CCSc1nc(Nc2ccccc2Cl)c2ccncc2n1`, the pIC50 in assay [1] was 4.77; in [2] it was 4.56; in [3], less than 4.10.

`COc1cccc(Nc2nc(SCC3CCCCC3)nc3cnccc23)c1`: the negative-log IC50 (pIC50) is 4.48 in assay [1], 4.63 in [2] and 4.56 in assay [3].

Consider `C#CCSc1nc(NCCC#N)c2ccncc2n1`, for which the pIC50 in [1], in assay [2] and in assay [3] was less than 4.10 in each case.

Regarding `C#CCSc1nc(Nc2cc(OC)c(OC)c(OC)c2)c2ccncc2n1`, the pIC50 in assay [1] is 4.85; in [2] it was 5.25; in assay [3] it was 4.51.

For `C/C=C/Sc1nc(Nc2cccc(OC)c2)c2ccncc2n1`, the pIC50 was 4.74 in [1], 5.99 in assay [2] and 5.17 in assay [3].

Turning to `O=c1[nH]cc(F)c(=O)[nH]1` [FLUOROURACIL], the pIC50 in assay [1] is 4.53; in assay [2], 5.14; in [3], 4.82.

Consider `C#CCSc1nc(Nc2cccc(O)c2)c2ccncc2n1`, for which the pIC50 was 4.53 in assay [1], 4.81 in assay [2] and less than 4.10 in [3].

With `C#CCSc1nc(Nc2ccc(Br)cc2)c2ccncc2n1`, the pIC50 is 4.25 in assay [1], 4.59 in [2] and 4.59 in assay [3].

For `C#CCSc1nc(Nc2cccc(Cl)c2)c2ccncc2n1`, the pIC50 in assay [1] is 5.96; in assay [2] it was 5.66; in assay [3], 4.25.
